Reference: paper PMC9880260, “Identification of compounds with activity against Trypanosoma cruzi within a collection of synthetic nucleoside analogs” (Frontiers in Cellular and Infection Microbiology, 2023)

Experiments:
[1] = system: T. cruzi Tulahuen parasites; details: Vero TC50 / anti-T. cruzi IC50
Description: Trypomastigotes were isolated for the maintenance of the cycle and for the performance of the antiparasitic assays, respectively. Briefly, medium containing free swimming trypomastigotes was harvested in falcon tubes and centrifuged at 2,500 rpm for 10 minutes to remove cell debris. […] In the second case, another centrifugation was made to get rid of any PR remnants that may interfere in the assay readout.
Compounds were added to a flat 96-well cell culture plate (SPL Life Sciences, Pocheon-si, Korea) and diluted in assay medium following a 1:2 dose-response pattern. Vero cells were detached, washed and counted using a Neubauer chamber. On the other side, T. cruzi trypomastigotes were collected and counted. Then, 50,000 trypomastigotes and 50,000 Vero cells were simultaneously added to each well to reach a final volume of 200 μl per well (multiplicity of infection or MOI = 1). […] Note that trypomastigotes are unable to multiply and therefore they mark the enzymatic time zero. In addition to those controls, BNZ-treated wells were also included as a positive control of drug inhibition. Plates were incubated at 37°C for 96 h. After that, chlorophenol red-β-D-galactopyranoside (CPRG) substrate was added to detect the enzymatic activity of β-galactosidase expressed by the parasites. […] Absorbance was measured at 590 nm in an Epoch Gene5 Microplate Spectrophotometer (BioTek, Winooski, USA).
(§2) Half maximum inhibitory (IC50) and half maximum toxicity concentration (TC50) values were determined with GraphPad Prism 7 software (version 7.00, San Diego, USA) using a nonlinear regression analysis model defined by equation 2:
(§3) Values were expressed as means with standard deviations (SD) of at least three independent experiments.

HepG2 cells = assay: HepG2 cell toxicity assay (Alamar Blue, 48 h); type: cell-based, human
Description: (§1) Compounds were added to the plates and diluted following a dose-response pattern in assay medium. Vero cells were prepared in assay medium and added to each well as described ([Martinez-Peinado et al., 2020]). Each test plate contained its own negative (untreated cells) and positive (medium alone) control wells ([Martinez-Peinado et al., 2020]). BNZ and digitoxin (DTX) were included as non-toxicity and toxicity drug controls, respectively. Parallel assays with HepG2 cells were carried out to evaluate the toxicity of compounds in a human cell line as described ([Martinez-Peinado et al., 2020]). […] Vitality was measured with Alamar Blue (Thermo Fischer Scientific, Waltham, USA) to detect metabolically active (live) cells by fluorimetry. For this, a PBS dilution with 10% Alamar Blue was added to each well and the plates were incubated at 37°C for 6 h. Readout was performed on a TECAN Infinite M Nano+ reader (Tecan Trading AG, Männedorf, Switzerland) using i-control™ 2.0 software and setting excitation at 530 nm and emission at 590 nm.

Vero cells = type: cell-based; details: green monkey, 96 h
Description: as §1

T. cruzi amastigotes = assay: Amastigotes growth inhibition assay (infected Vero cells, 72 h, CPRG); details: for IC50: Trypanosoma cruzi, Vero, 72 h, read-out: [IC50] Anti-amastigote assay; for activity against amastigotes: active = IC50 ≤ 10× that of BNZ
Description: Upon washing the monolayers with PBS, purified trypomastigotes were added at a concentration of 1×10^7 trypomastigotes per flask (MOI = 1) and infected monolayers were kept in assay medium. After 18 h, infected Vero cells were PBS-washed and trypsin-detached, diluted at a concentration of 5×10^5 cells per ml in assay medium and 100 μl of that solution (50000 cells) added to 96-well test plates already containing the compounds.
as §2, §3

[2] = Microscopy-based observation of compound dissolution / crystals in assay medium; type: physicochemical; details: for solubility: compounds at 750 μM, read-out: solubility issues / crystals formed during the assays
Description: Among the eight compounds selected, five carried the benzene ring group at position C8 illustrating the relevance of this substituent. Family by family, L4-0c was the only selected from L4-0.
Figure S3. Crystals of the compounds [750 μM] formed during the assays. The eight compounds selected through the discovery cascade are shown in bold. Besides, those indicated with an asterisk too had solubility issues. BNZ is shown at 400 μM.

Row | SMILES | SI Vero cells assays (TC50/IC50) [1] | [TC50] HepG2 assay (HepG2 cells; human) | [TC50] Vero cells assays (Vero cells) | IC50 (T. cruzi amastigotes) [µM] | dissolution in assay medium (microscopy-based observation) [2] | activity against amastigotes (T. cruzi amastigotes) | solubility [2] [µM] | [TC50] HepG2 assay (HepG2 cells; HepG2 cells, mean ± SD) [µM]
1 | O=C(Cn1ccnc1[N+](=O)[O-])NCc1ccccc1 [BNZ, benznidazole, reference compound] | 81.36 | 490.90 ± 267.10 µM | 196.90 ± 30.67 µM | 1.47 ± 0.08 | – | – | – | –
2 | Cc1nc2c(NCc3ccccc3)ncnc2n1Cc1ccccc1 [Compound L4-0b] | 4.75 | – | 68.16 ± 12.00 µM | – | – | – | – | –
3 | c1ccc(CNc2ncnc3c2nc(-c2ccccc2)n3Cc2ccccc2)cc1 [Compound L4-0c] | – | > 10,000 μM | > 1,000 μM | 11.2 ± 0.35 | failed to be completely dissolved | active | – | –
4 | c1ccc(CCNc2ncnc3c2ncn3CCc2ccccc2)cc1 [Compound L4-1a] | 2.59 | – | 39.26 ± 4.81 µM | – | – | – | – | –
5 | Cc1nc2c(NCCc3ccccc3)ncnc2n1CCc1ccccc1 [Compound L4-1b] | 3.52 | – | 55.91 ± 5.64 µM | – | – | – | – | –
6 | c1ccc(CCNc2ncnc3c2nc(-c2ccccc2)n3CCc2ccccc2)cc1 [Compound L4-1c] | – | 53.96 ± 12.33 µM | > 1,000 μM | 6.21 ± 0.29 | – | active | – | –
7 | COc1ccc(CNc2ncnc3c2nc(-c2ccccc2)n3Cc2ccc(OC)cc2)cc1 [Compound L4-2c] | – | > 10,000 μM | > 1,000 μM | 6.19 ± 0.21 | – | active | – | –
8 | Clc1ccc(CNc2ncnc3c2ncn3Cc2ccc(Cl)cc2)cc1 [Compound L4-4a] | – | > 1,000 μM | > 1,000 μM | 9.36 ± 0.4 | – | active | – | –
9 | Cc1nc2c(NCc3ccc(Cl)cc3)ncnc2n1Cc1ccc(Cl)cc1 [Compound L4-4b] | 5.17 | – | 27.01 ± 2.00 µM | – | – | – | – | –
10 | Clc1ccc(CNc2ncnc3c2nc(-c2ccccc2)n3Cc2ccc(Cl)cc2)cc1 [Compound L4-4c] | – | 164.80 ± 38.82 µM | 187.50 ± 54.14 µM | 4.2 ± 0.21 | – | active | – | –
11 | Brc1ccc(CCNc2ncnc3c2nc(-c2ccccc2)n3CCc2ccc(Br)cc2)cc1 [Compound L4-7c] | – | 550.60 ± 130.00 µM | 909.20 ± 564.00 µM | 7.51 ± 0.79 | – | active | – | –
12 | Clc1cccc(CNc2ncnc3c2ncn3Cc2cccc(Cl)c2)c1 [Compound L4-8a] | – | 35.21 ± 5.52 µM | 346.30 ± 189.30 µM | – | – | – | – | –
13 | Cc1nc2c(NCc3cccc(Cl)c3)ncnc2n1Cc1cccc(Cl)c1 [Compound L4-8b] | 11.65 | 17.77 ± 0.71 µM | 60.11 ± 8.50 µM | – | – | – | – | –
14 | Clc1cccc(CNc2ncnc3c2nc(-c2ccccc2)n3Cc2cccc(Cl)c2)c1 [Compound L4-8c, N,9-bis(3-chlorobenzyl)-8-phenyl-9H-purin-6-amine] | – | > 1,000 μM | > 1,000 μM | 7.61 ± 0.36 | presence of crystals | active | < 750 | –
15 | Cc1nc2c(NCc3ccccc3Cl)ncnc2n1Cc1ccccc1Cl [Compound L4-9b] | – | 372.20 ± 51.70 µM | > 1,000 μM | 8.87 ± 0.42 | presence of crystals | active | < 750 | –
16 | Clc1ccccc1CNc1ncnc2c1nc(-c1ccccc1)n2Cc1ccccc1Cl [Compound L4-9c] | > 10,000 | >10,000 μM | > 10,000 μM | 28.7 ± 2.34 | – | inactive | – | –
17 | C[C@H]1O[C@@H](O[C@H]2[C@@H](O)C[C@H](O[C@H]3[C@@H](O)C[C@H](O[C@H]4CC[C@@]5(C)[C@H](CC[C@@H]6[C@@H]5CC[C@]5(C)[C@@H](C7=CC(=O)OC7)CC[C@]65O)C4)O[C@@H]3C)O[C@@H]2C)C[C@H](O)[C@@H]1O [DTX, digitoxin, reference compound] | – | – | – | – | – | – | – | 1.29 ± 0.40
